# Reference: BindingDB's records for doi:10.1016/j.bmc.2010.11.049 (Bryn Mawr College, 2011)
# Assay: Inhibition of HIV1 YU2 gp120 binding to CD4 expressing Cf2Th-CD4/CCR5 cells assessed as inhibition of viral infection after 48 hrs
row,Structure (SMILES),IC50
1,CNS(=O)(=O)Cc1ccc(CNC(=O)C(=O)Nc2ccc(Cl)c(F)c2)cc1 [N1-(4-chloro-3-fluorophenyl)-N2-(4-(N-methylsulfamoylmethyl)benzyl)oxalamide],> 100 µM
2,CNC(=O)c1ccc(CNC(=O)C(=O)Nc2ccc(Cl)c(F)c2)cc1 [N1-(4-chloro-3-fluorophenyl)-N2-(4-(methylcarbamoyl)benzyl)oxalamide],> 100 µM
3,O=C(Nc1ccc(Cl)c(F)c1)C(=O)NC1CCNC2(CCC2)C1 (stereo unspecified) [N1-(4-chloro-3-fluorophenyl)-N2-(5-azaspiro[3.5]nonan-8-yl)oxalamide],38.5 µM
4,"O=C(NCC1NCCc2ccccc21)C(=O)Nc1ccc(Cl)c(F)c1 (stereo unspecified) [N1-(4-chloro-3-fluorophenyl)-N2-((1,2,3,4-tetrahydroisoquinolin-1-yl)methyl)oxalamide]",50.4 µM
5,"O=C(NCc1[nH]nc2c1CCCCC2)C(=O)Nc1ccc(Cl)c(F)c1 [N1-(4-chloro-3-fluorophenyl)-N2-((1,4,5,6,7,8-hexahydrocyclohepta[c]pyrazol-3-yl)methyl)oxalamide]",> 100 µM
6,O=C(NCC1CCCN(CCO)C1)C(=O)Nc1ccc(Cl)c(F)c1 (stereo unspecified) [N1-(4-chloro-3-fluorophenyl)-N2-((1-(2-hydroxyethyl)piperidin-3-yl)methyl)oxalamide],27.6 µM
7,O=C(NCC1CCN(CCN2CCOCC2)C1)C(=O)Nc1ccc(Cl)c(F)c1 (stereo unspecified) [N1-(4-chloro-3-fluorophenyl)-N2-((1-(2-morpholinoethyl)pyrrolidin-3-yl)methyl)oxalamide],> 100 µM
8,CCN1CCCC1CNC(=O)C(=O)Nc1ccc(Cl)c(F)c1 (stereo unspecified) [N1-(4-chloro-3-fluorophenyl)-N2-((1-ethylpyrrolidin-2-yl)methyl)oxalamide],85.2 µM
9,CN1CCCC(CNC(=O)C(=O)Nc2ccc(Cl)c(F)c2)C1 (stereo unspecified) [N1-(4-chloro-3-fluorophenyl)-N2-((1-methylpiperidin-3-yl)methyl)oxalamide],> 100 µM
10,CN1CCC(CNC(=O)C(=O)Nc2ccc(Cl)c(F)c2)CC1 [N1-(4-chloro-3-fluorophenyl)-N2-((1-methylpiperidin-4-yl)methyl)oxalamide],> 100 µM
11,"CC1(C)CC(CNC(=O)C(=O)Nc2ccc(Cl)c(F)c2)CC(C)(C)N1 [N1-(4-chloro-3-fluorophenyl)-N2-((2,2,6,6-tetramethylpiperidin-4-yl)methyl)oxalamide]",33 µM
12,"Cc1n[nH]c(C)c1CNC(=O)C(=O)Nc1ccc(Cl)c(F)c1 [N1-(4-chloro-3-fluorophenyl)-N2-((3,5-dimethyl-1H-pyrazol-4-yl)methyl)oxalamide]",64.5 µM
13,CN1CCC(CNC(=O)C(=O)Nc2ccc(Cl)c(F)c2)(N(C)C)CC1 [N1-(4-chloro-3-fluorophenyl)-N2-((4-(dimethylamino)-1-methylpiperidin-4-yl)methyl)oxalamide],> 100 µM
14,"O=C(NC[C@@H]1CCCN2CCCC[C@H]12)C(=O)Nc1ccc(Cl)c(F)c1 [N1-(4-chloro-3-fluorophenyl)-N2-(((1S,9aR)-octahydro-1H-quinolizin-1-yl)methyl)oxalamide]",> 100 µM
15,"O=C(NC[C@@]12CCC[C@@H]1CNC2)C(=O)Nc1ccc(Cl)c(F)c1 [N1-(4-chloro-3-fluorophenyl)-N2-(((3aS,6aS)-octahydrocyclopenta[c]pyrrol-3a-yl)methyl)oxalamide]",68.3 µM
16,O=C(NCC1CCNCC1)C(=O)Nc1ccc(Cl)c(F)c1 [N1-(4-chloro-3-fluorophenyl)-N2-(piperidin-4-ylmethyl)oxalamide],> 100 µM
17,"CN(C(=O)C(=O)Nc1ccc(Cl)c(F)c1)C1CC(C)(C)NC(C)(C)C1 [N1-(4-chloro-3-fluorophenyl)-N2-methyl-N2-(2,2,6,6-tetramethylpiperidin-4-yl)oxalamide]",> 100 µM
18,"CC(C)Oc1cc(NC(=O)C(=O)NC2CC(C)(C)NC(C)(C)C2)ccc1Cl [N1-(4-chloro-3-isopropoxyphenyl)-N2-(2,2,6,6-tetramethylpiperidin-4-yl)oxalamide]",> 100 µM

row,Structure (SMILES),IC50
1,"COc1cc(NC(=O)C(=O)NC2CC(C)(C)NC(C)(C)C2)ccc1Cl [N1-(4-chloro-3-methoxyphenyl)-N2-(2,2,6,6-tetramethylpiperidin-4-yl)oxalamide]",> 100 µM
2,"CN(C(=O)C(=O)NC1CC(C)(C)NC(C)(C)C1)c1ccc(Cl)cc1 [N1-(4-chlorophenyl)-N1-methyl-N2-(2,2,6,6-tetramethylpiperidin-4-yl)oxalamide]",> 100 µM
3,COc1cccc(CNC(=O)C(=O)Nc2ccc(Cl)cc2)c1 [N1-(4-chlorophenyl)-N2-(3-methoxybenzyl)oxalamide],> 100 µM
4,COc1cccc(NC(=O)C(=O)Nc2ccc(Cl)cc2)c1 [N1-(4-chlorophenyl)-N2-(3-methoxyphenyl)oxalamide],> 100 µM
5,CCN1CCCC1CNC(=O)C(=O)Nc1ccc(Cl)cc1 (stereo unspecified) [N1-(4-chlorophenyl)-N2-((1-ethylpyrrolidin-2-yl)methyl)oxalamide],58.6 µM
6,Nc1ncc(CNC(=O)C(=O)Nc2ccc(Cl)c(F)c2)cn1 [N1-((2-aminopyrimidin-5-yl)methyl)-N2-(4-chloro-3-fluorophenyl)oxalamide],> 100 µM
7,CC(C)(C)c1cc(CNC(=O)C(=O)Nc2ccc(Cl)c(F)c2)[nH]n1 [N1-((5-tert-butyl-1H-pyrazol-3-yl)methyl)-N2-(4-chloro-3-fluorophenyl)oxalamide],> 100 µM
8,"CC1(C)O[C@@H](CN)[C@H](CNC(=O)C(=O)Nc2ccc(Cl)c(F)c2)O1 [N1-(((4S,5S)-5-(aminomethyl)-2,2-dimethyl-1,3-dioxolan-4-yl)methyl)-N2-(4-chloro-3-fluorophenyl)oxalamide]",76.6 µM
9,"O=C(NCc1ccc2c(c1)OCO2)C(=O)Nc1ccc(Br)cc1 [N1-(benzo[d][1,3]dioxol-5-ylmethyl)-N2-(4-bromophenyl)oxalamide]",> 100 µM
10,"CC1(C)CC(NC(=O)C(=O)Nc2ccc3ccccc3c2)CC(C)(C)N1 [N1-(naphthalen-2-yl)-N2-(2,2,6,6-tetramethylpiperidin-4-yl)oxalamide]",> 100 µM
11,Cc1cc(NC(=O)C(=O)c2c[nH]c3ccccc23)ccc1Br [N-(4-bromo-3-methylphenyl)-2-(1H-indol-3-yl)-2-oxoacetamide],> 100 µM
12,O=C(CSCc1cc(=O)[nH][nH]1)Nc1ccc(Br)cc1 [N-(4-bromophenyl)-2-((5-hydroxy-1H-pyrazol-3-yl)methylthio)acetamide],> 100 µM
13,"Cc1nn(C)cc1CN(C)CC(=O)Nc1ccc(Br)cc1 [N-(4-bromophenyl)-2-(((1,3-dimethyl-1H-pyrazol-4-yl)methyl)(methyl)amino)acetamide]",> 100 µM
14,CC(CC(=O)Nc1ccc(Br)cc1)Nc1cccc(CO)c1 (stereo unspecified) [N-(4-bromophenyl)-3-(3-(hydroxymethyl)phenylamino)butanamide],> 100 µM
15,CC1CCCN(CCC(=O)Nc2ccc(Br)cc2)C1 (stereo unspecified) [N-(4-bromophenyl)-3-(3-methylpiperidin-1-yl)propanamide],> 100 µM
16,O=C(Nc1ccc(Br)cc1)c1cc(CN2CCCC2)on1 [N-(4-bromophenyl)-5-(pyrrolidin-1-ylmethyl)isoxazole-3-carboxamide],> 100 µM
17,"CC1(C)CC(NCC(=O)Nc2ccc(Cl)c(F)c2)CC(C)(C)N1 [N-(4-chloro-3-fluorophenyl)-2-(2,2,6,6-tetramethylpiperidin-4-ylamino)acetamide]",> 100 µM
18,O=C(Nc1ccc(Cl)cc1)C(=O)c1c[nH]c2ccccc12 [N-(4-chlorophenyl)-2-(1H-indol-3-yl)-2-oxoacetamide],> 100 µM
